This note sets out measurements from patent publication US11077090B2, “Compounds and compositions and uses thereof” (Sunovion Pharmaceuticals Inc., priority 2016, dated 2021).

As a reminder, the minimal effective dose is the smallest amount tested that counted as effective.

The subject of one experiment is compound-treated mice. Briefly: Neuropharmacological assay (SmartCube): behavioral activity signature and minimal effective dose. In kind it is in vivo. The conditions noted are these: Mus musculus, ip, MED = dose having 50% or more total activity, read-out: Potency: minimal effective dose (MED), binned. A digest of the protocol: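 Mice dosed i.p. 15 min before test, compound in N-methyl-2-pyrrolidone/PEG/propylene glycol, 3 doses; video-captured behavior matched to reference-drug signatures, giving per-class probabilities at most efficacious dose. MED from doses typically 0.3–30 mpk, defined as lowest dose with ≥50% total activity.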
For `CC(C)C[C@@H]1OCc2ccccc2[C@@H]1N` [Example 223], the minimal effective dose is 3 to 10 mg/kg.

As for `CC(C)C[C@H]1OCc2ccccc2[C@@H]1N` [Example 224], the minimal effective dose fell in the range of 10 to 30 mg/kg.

For the compound `Cc1ccc(Cl)c2c1[C@H](N)[C@H](C)OC2.Cl` [Example 225], the minimal effective dose lay in the range of 3 to 10 mg/kg.

With `Cc1cccc2c1[C@H](N)CO[C@@H]2C` [Example 226], the minimal effective dose lay in the range of 10 to 30 mg/kg.

As to `Cc1cccc2c1[C@H](N)CO[C@H]2C` [Example 227], the minimal effective dose was in the range of 3 to 10 mg/kg.

For the compound `C[C@@H]1OCc2ccc(C(F)(F)F)cc2[C@@H]1N.Cl` [Example 228], the minimal effective dose was in the range of 10 to 30 mg/kg.

As to `C[C@H]1OCc2ccc(C(F)(F)F)cc2[C@@H]1N.Cl` [Example 229], the minimal effective dose is 3 to 10 mg/kg.

As to `COc1cccc2c1[C@H](N)[C@H](C)OC2.Cl` [Example 230], the minimal effective dose fell in the range of 3 to 10 mg/kg.

With `COc1cccc2c1[C@H](N)[C@@H](C)OC2.Cl` [Example 231], the minimal effective dose fell in the range of 10 to 30 mg/kg.

As for `COc1ccc2c(c1)CO[C@H](C)[C@H]2N.Cl` [Example 232], the minimal effective dose lay in the range of 10 to 30 mg/kg.

With `COc1ccc2c(c1)CO[C@@H](C)[C@H]2N.Cl` [Example 233], the minimal effective dose was over 30 mg/kg.

Regarding `COc1cccc2c1CO[C@@H](C)[C@H]2N.Cl` [Example 234], the minimal effective dose fell in the range of 10 to 30 mg/kg.

As for `COc1cccc2c1CO[C@H](C)[C@H]2N.Cl` [Example 235], the minimal effective dose was over 30 mg/kg.

Still in this experiment, the particulars now being: i.p. 15 min before test, most efficacious dose(s).
With `CC(C)C[C@@H]1OCc2ccccc2[C@@H]1N` [Example 223], the “AD: ADHD (probability of activity signature)” value (shortened to “AD: ADHD”) is on record as “+ (LOQ ≤ + <5%)”, the “AG: analgesic (probability of activity signature)” value (“AG: analgesic” below) is recorded as “+ (LOQ ≤ + <5%)”, the “AX: anxiolytic (probability of activity signature)” value (shortened to “AX: anxiolytic”) is recorded as “++ (5% ≤ ++ <25%)” and the “CE: cognitive enhancer (probability of activity signature)” value (from here on “CE: cognitive enhancer”) is “+ (LOQ ≤ + <5%)”. Also, the “DP: anti-depressant (probability of activity signature)” value (“DP: anti-depressant” for short) is “++ (5% ≤ ++ <25%)”, the “MS: mood stabilizer (probability of activity signature)” value (from here on “MS: mood stabilizer”) is given as “+ (LOQ ≤ + <5%)”, the “PS: anti-psychotic (probability of activity signature)” value (from here on “PS: anti-psychotic”) is “+ (LOQ ≤ + <5%)” and the “SD: sedative hypnotic (probability of activity signature)” value (“SD: sedative hypnotic” for short) is given as “++ (5% ≤ ++ <25%)”. In addition, the “UN: uncharacterized CNS activity (probability of activity signature)” value (“UN: uncharacterized CNS activity” below) is given as “+++ (25% ≤ +++ <50%)”.

With `CC(C)C[C@H]1OCc2ccccc2[C@@H]1N` [Example 224], the “AD: ADHD” value is listed as “+ (LOQ ≤ + <5%)”, the “AG: analgesic” value is “++ (5% ≤ ++ <25%)”, the “AX: anxiolytic” value is given as “++ (5% ≤ ++ <25%)” and the “CE: cognitive enhancer” value was “+++ (25% ≤ +++ <50%)”. Further, the “DP: anti-depressant” value is given as “+ (LOQ ≤ + <5%)”, the “MS: mood stabilizer” value was “+ (LOQ ≤ + <5%)”, the “PS: anti-psychotic” value is given as “+ (LOQ ≤ + <5%)” and the “SD: sedative hypnotic” value is reported as “++ (5% ≤ ++ <25%)”. For the same compound, the “UN: uncharacterized CNS activity” value is “++ (5% ≤ ++ <25%)”.

For `Cc1ccc(Cl)c2c1[C@H](N)[C@H](C)OC2.Cl` [Example 225], the “AD: ADHD” value is reported as “+ (LOQ ≤ + <5%)”, the “AG: analgesic” value is listed as “++ (5% ≤ ++ <25%)”, the “AX: anxiolytic” value is listed as “++ (5% ≤ ++ <25%)” and the “CE: cognitive enhancer” value is listed as “++ (5% ≤ ++ <25%)”. For the same compound, the “DP: anti-depressant” value was “++ (5% ≤ ++ <25%)”, the “MS: mood stabilizer” value was “+ (LOQ ≤ + <5%)”, the “PS: anti-psychotic” value is recorded as “++ (5% ≤ ++ <25%)” and the “SD: sedative hypnotic” value is recorded as “++ (5% ≤ ++ <25%)”. The “UN: uncharacterized CNS activity” value is recorded as “++++ (50% ≤ ++++)”.

As for `Cc1cccc2c1[C@H](N)CO[C@@H]2C` [Example 226], the “AD: ADHD” value is given as “+ (LOQ ≤ + <5%)”, the “AG: analgesic” value is given as “+ (LOQ ≤ + <5%)”, the “AX: anxiolytic” value is reported as “++ (5% ≤ ++ <25%)” and the “CE: cognitive enhancer” value is given as “++ (5% ≤ ++ <25%)”. Further, the “DP: anti-depressant” value is “++ (5% ≤ ++ <25%)”, the “MS: mood stabilizer” value is on record as “+ (LOQ ≤ + <5%)”, the “PS: anti-psychotic” value is reported as “+++ (25% ≤ +++ <50%)” and the “SD: sedative hypnotic” value is recorded as “+ (LOQ ≤ + <5%)”. In addition, the “UN: uncharacterized CNS activity” value is “++ (5% ≤ ++ <25%)”.

`Cc1cccc2c1[C@H](N)CO[C@H]2C` [Example 227]: the “AD: ADHD” value was “+ (LOQ ≤ + <5%)”, the “AG: analgesic” value is “++ (5% ≤ ++ <25%)”, the “AX: anxiolytic” value is “++ (5% ≤ ++ <25%)” and the “CE: cognitive enhancer” value is “+ (LOQ ≤ + <5%)”. Also, the “DP: anti-depressant” value is “+ (LOQ ≤ + <5%)”, the “MS: mood stabilizer” value is recorded as “+ (LOQ ≤ + <5%)”, the “PS: anti-psychotic” value is “++ (5% ≤ ++ <25%)” and the “SD: sedative hypnotic” value is on record as “+ (LOQ ≤ + <5%)”. In addition, the “UN: uncharacterized CNS activity” value is on record as “++++ (50% ≤ ++++)”.

As for `C[C@@H]1OCc2ccc(C(F)(F)F)cc2[C@@H]1N.Cl` [Example 228], the “AD: ADHD” value is “+ (LOQ ≤ + <5%)”, the “AG: analgesic” value is “++ (5% ≤ ++ <25%)”, the “AX: anxiolytic” value is given as “++ (5% ≤ ++ <25%)” and the “CE: cognitive enhancer” value is reported as “+ (LOQ ≤ + <5%)”. Further, the “DP: anti-depressant” value is given as “++ (5% ≤ ++ <25%)”, the “MS: mood stabilizer” value is listed as “+ (LOQ ≤ + <5%)”, the “PS: anti-psychotic” value is given as “++ (5% ≤ ++ <25%)” and the “SD: sedative hypnotic” value was “+ (LOQ ≤ + <5%)”. In addition, the “UN: uncharacterized CNS activity” value was “+++ (25% ≤ +++ <50%)”.

`C[C@H]1OCc2ccc(C(F)(F)F)cc2[C@@H]1N.Cl` [Example 229]: the “AD: ADHD” value is “+ (LOQ ≤ + <5%)”, the “AG: analgesic” value is reported as “+ (LOQ ≤ + <5%)”, the “AX: anxiolytic” value is recorded as “++ (5% ≤ ++ <25%)” and the “CE: cognitive enhancer” value is given as “++ (5% ≤ ++ <25%)”. The “DP: anti-depressant” value was “++ (5% ≤ ++ <25%)”, the “MS: mood stabilizer” value is on record as “+ (LOQ ≤ + <5%)”, the “PS: anti-psychotic” value is “++ (5% ≤ ++ <25%)” and the “SD: sedative hypnotic” value is on record as “+ (LOQ ≤ + <5%)”. For the same compound, the “UN: uncharacterized CNS activity” value was “+++ (25% ≤ +++ <50%)”.

Regarding `COc1cccc2c1[C@H](N)[C@H](C)OC2.Cl` [Example 230], the “AD: ADHD” value is “+ (LOQ ≤ + <5%)”, the “AG: analgesic” value is “+ (LOQ ≤ + <5%)”, the “AX: anxiolytic” value is “++ (5% ≤ ++ <25%)” and the “CE: cognitive enhancer” value is given as “++ (5% ≤ ++ <25%)”. The “DP: anti-depressant” value is given as “+ (LOQ ≤ + <5%)”, the “MS: mood stabilizer” value was “+ (LOQ ≤ + <5%)”, the “PS: anti-psychotic” value is “++ (5% ≤ ++ <25%)” and the “SD: sedative hypnotic” value was “+ (LOQ ≤ + <5%)”. Also, the “UN: uncharacterized CNS activity” value was “++++ (50% ≤ ++++)”.

For the compound `COc1cccc2c1[C@H](N)[C@@H](C)OC2.Cl` [Example 231], the “AD: ADHD” value is “+ (LOQ ≤ + <5%)”, the “AG: analgesic” value was “++ (5% ≤ ++ <25%)”, the “AX: anxiolytic” value is recorded as “++ (5% ≤ ++ <25%)” and the “CE: cognitive enhancer” value is “++ (5% ≤ ++ <25%)”. Further, the “DP: anti-depressant” value is given as “++ (5% ≤ ++ <25%)”, the “MS: mood stabilizer” value is “+ (LOQ ≤ + <5%)”, the “PS: anti-psychotic” value is reported as “+ (LOQ ≤ + <5%)” and the “SD: sedative hypnotic” value is on record as “+ (LOQ ≤ + <5%)”. For the same compound, the “UN: uncharacterized CNS activity” value is given as “+++ (25% ≤ +++ <50%)”.

As to `COc1ccc2c(c1)CO[C@H](C)[C@H]2N.Cl` [Example 232], the “AD: ADHD” value is reported as “+ (LOQ ≤ + <5%)”, the “AG: analgesic” value is recorded as “++ (5% ≤ ++ <25%)”, the “AX: anxiolytic” value is “++ (5% ≤ ++ <25%)” and the “CE: cognitive enhancer” value is reported as “+ (LOQ ≤ + <5%)”. Besides, the “DP: anti-depressant” value is “+ (LOQ ≤ + <5%)”, the “MS: mood stabilizer” value is on record as “+ (LOQ ≤ + <5%)”, the “PS: anti-psychotic” value is on record as “+ (LOQ ≤ + <5%)” and the “SD: sedative hypnotic” value is listed as “+ (LOQ ≤ + <5%)”. The “UN: uncharacterized CNS activity” value is on record as “++ (5% ≤ ++ <25%)”.

For the compound `COc1ccc2c(c1)CO[C@@H](C)[C@H]2N.Cl` [Example 233], the “AD: ADHD” value is “+ (LOQ ≤ + <5%)”, the “AG: analgesic” value was “++ (5% ≤ ++ <25%)”, the “AX: anxiolytic” value is “++ (5% ≤ ++ <25%)” and the “CE: cognitive enhancer” value is on record as “++ (5% ≤ ++ <25%)”. Moreover, the “DP: anti-depressant” value was “+ (LOQ ≤ + <5%)”, the “MS: mood stabilizer” value is reported as “+ (LOQ ≤ + <5%)”, the “PS: anti-psychotic” value is “+ (LOQ ≤ + <5%)” and the “SD: sedative hypnotic” value is “+ (LOQ ≤ + <5%)”. Moreover, the “UN: uncharacterized CNS activity” value is “+ (LOQ ≤ + <5%)”.

Turning to `COc1cccc2c1CO[C@@H](C)[C@H]2N.Cl` [Example 234], the “AD: ADHD” value was “+ (LOQ ≤ + <5%)”, the “AG: analgesic” value is “++ (5% ≤ ++ <25%)”, the “AX: anxiolytic” value is given as “+++ (25% ≤ +++ <50%)” and the “CE: cognitive enhancer” value was “++ (5% ≤ ++ <25%)”. For the same compound, the “DP: anti-depressant” value is “+ (LOQ ≤ + <5%)”, the “MS: mood stabilizer” value was “+ (LOQ ≤ + <5%)”, the “PS: anti-psychotic” value was “++ (5% ≤ ++ <25%)” and the “SD: sedative hypnotic” value is reported as “++ (5% ≤ ++ <25%)”. The “UN: uncharacterized CNS activity” value was “++ (5% ≤ ++ <25%)”.

In the case of `COc1cccc2c1CO[C@H](C)[C@H]2N.Cl` [Example 235], the “AD: ADHD” value is reported as “+ (LOQ ≤ + <5%)”, the “AG: analgesic” value was “+ (LOQ ≤ + <5%)”, the “AX: anxiolytic” value is given as “++ (5% ≤ ++ <25%)” and the “CE: cognitive enhancer” value is “+ (LOQ ≤ + <5%)”. Besides, the “DP: anti-depressant” value was “+ (LOQ ≤ + <5%)”, the “MS: mood stabilizer” value is reported as “+ (LOQ ≤ + <5%)”, the “PS: anti-psychotic” value is “+ (LOQ ≤ + <5%)” and the “SD: sedative hypnotic” value is reported as “+ (LOQ ≤ + <5%)”. The “UN: uncharacterized CNS activity” value is “+ (LOQ ≤ + <5%)”.
